Assay results: ChEMBL document CHEMBL1201862, “PubChem BioAssay data set” (2004)
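Interpolation was linear, between the two tested concentrations surrounding the appropriate level; five concentrations were tested over 48 hours in 96-well plates. GI50 = concentration required for 50% inhibition of growth.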 Calls of active or inactive are those of the source. Rule as the data show it: active = GI50 up to about 1.1 µM and inactive = higher.

Legend:
Assay in all cases: DTP human tumour cell line panel, 48 h
[1] = system: RXF 393
[2] = system: HOP-62
[3] = system: CAKI-1
[4] = system: HCT-116
[5] = system: SNB-75
[6] = system: SR
[7] = system: SF-539
[8] = system: NCI-H460
[9] = system: U-251
[10] = system: NCI-H23
[11] = system: MOLT-4
[12] = system: PC-3
[13] = system: K562
[14] = system: Hs-578T
[15] = system: SK-MEL-5
[16] = system: TK-10
[17] = system: SN12C
[18] = system: BT-549
[19] = system: HL-60
[20] = system: T47D
[21] = system: COLO 205
[22] = system: MDA-N
[23] = system: OVCAR-3
[24] = system: EKVX
[25] = system: DU-145
[26] = system: A498
[27] = system: UACC-257
[28] = system: OVCAR-4
[29] = system: NCI-H522
[30] = system: MCF7
[31] = system: OVCAR-5
[32] = system: OVCAR-8
[33] = system: HCT-15
[34] = system: NCI-H226
[35] = system: 786-0
[36] = system: M14
[37] = system: IGROV-1
[38] = system: ACHN
[39] = system: NCI/ADR-RES
[40] = system: SW-620
[41] = system: LOX IMVI
[42] = system: MDA-MB-231
[43] = system: SF-295
[44] = system: UACC-62
[45] = system: Malme-3M
[46] = system: SF-268
[47] = system: KM12
[48] = system: UO-31
[49] = system: CCRF-CEM
[50] = system: SNB-19
[51] = system: SK-MEL-2
[52] = system: HT-29
[53] = system: HCC 2998
[54] = system: MDA-MB-435
[55] = system: RPMI-8226
[56] = system: SK-OV-3
[57] = system: HOP-92
[58] = system: SK-MEL-28
[59] = system: A549

Cc1cc(N(CCC#N)CCC#N)ccc1/C=N/NC(=O)c1ccccc1
GI50 [1]: 28.4 µM (inactive)
GI50 [2]: 31.8 µM (inactive)
GI50 [3]: 23.1 µM (inactive)
GI50 [4]: 7.57 µM (inactive)
GI50 [5]: 28.9 µM (inactive)
GI50 [6]: 1.34 µM (inactive)
GI50 [7]: 7.76 µM (inactive)
GI50 [8]: 9.1 µM (inactive)
GI50 [9]: 22.5 µM (inactive)
GI50 [10]: 25.2 µM (inactive)
GI50 [11]: 24.3 µM (inactive)
GI50 [12]: 21.8 µM (inactive)
GI50 [13]: 3.76 µM (inactive)
GI50 [14]: 15.4 µM (inactive)
GI50 [15]: 22 µM (inactive)
GI50 [16]: 48.3 µM (inactive)
GI50 [17]: 28.5 µM (inactive)
GI50 [18]: 42.7 µM (inactive)
GI50 [19]: 4.17 µM (inactive)
GI50 [20]: 24.8 µM (inactive)
GI50 [21]: 15.7 µM (inactive)
GI50 [22]: 2.86 µM (inactive)
GI50 [23]: 15 µM (inactive)
GI50 [24]: 48.9 µM (inactive)
GI50 [25]: 26.1 µM (inactive)
GI50 [26]: 10.1 µM (inactive)
GI50 [27]: > 48.9 µM (inactive)
GI50 [28]: 65.8 µM (inactive)
GI50 [29]: 8.34 µM (inactive)
GI50 [30]: 7.82 µM (inactive)
GI50 [31]: > 80.5 µM (inactive)
GI50 [32]: 23.5 µM (inactive)
GI50 [33]: 5.28 µM
GI50 [34]: 20.2 µM (inactive)
GI50 [35]: 31.6 µM (inactive)
GI50 [36]: 40.6 µM (inactive)
GI50 [37]: 12.9 µM (inactive)
GI50 [38]: 85.3 µM (inactive)
GI50 [39]: 8.63 µM (inactive)
GI50 [40]: 8.38 µM (inactive)
GI50 [41]: 8.02 µM (inactive)
GI50 [42]: 15 µM (inactive)
GI50 [43]: 12.9 µM (inactive)
GI50 [44]: 10.4 µM (inactive)
GI50 [45]: 33.2 µM (inactive)
GI50 [46]: > 48.8 µM (inactive)
GI50 [47]: 3.54 µM (inactive)
GI50 [48]: > 62.1 µM (inactive)
GI50 [49]: 23.1 µM (inactive)
GI50 [50]: > 59.2 µM (inactive)
GI50 [51]: 52.8 µM (inactive)
GI50 [52]: 3.79 µM (inactive)
GI50 [53]: 9.2 µM (inactive)
GI50 [54]: 2.42 µM (inactive)
GI50 [55]: 58.1 µM (inactive)
GI50 [56]: 18.5 µM (inactive)
GI50 [57]: 76.4 µM (inactive)
GI50 [58]: 31.5 µM (inactive)
GI50 [59]: 24.4 µM (inactive)

O=C(/C=C/c1ccccc1)Nc1ccccc1SCCCCl
GI50 [1]: 8.43 µM (inactive)
GI50 [2]: 15 µM (inactive)
GI50 [3]: 5.79 µM (inactive)
GI50 [4]: 8.91 µM (inactive)
GI50 [5]: 17.7 µM (inactive)
GI50 [6]: 9.38 µM (inactive)
GI50 [7]: 8.57 µM (inactive)
GI50 [8]: 10.2 µM (inactive)
GI50 [9]: 8.93 µM (inactive)
GI50 [10]: 3.56 µM (inactive)
GI50 [11]: 12.7 µM (inactive)
GI50 [12]: 9.91 µM (inactive)
GI50 [13]: 9.66 µM (inactive)
GI50 [14]: 6.81 µM (inactive)
GI50 [15]: 19.3 µM (inactive)
GI50 [16]: 55.7 µM (inactive)
GI50 [17]: 8.93 µM (inactive)
GI50 [18]: 8.11 µM (inactive)
GI50 [19]: 3.8 µM (inactive)
GI50 [20]: 7.52 µM (inactive)
GI50 [21]: 15.6 µM (inactive)
GI50 [22]: 6.38 µM (inactive)
GI50 [23]: 13.1 µM (inactive)
GI50 [24]: 15.4 µM (inactive)
GI50 [25]: 10.2 µM (inactive)
GI50 [26]: 9.08 µM (inactive)
GI50 [27]: 18.2 µM (inactive)
GI50 [28]: 12.1 µM (inactive)
GI50 [29]: 4.07 µM (inactive)
GI50 [30]: 4.4 µM (inactive)
GI50 [31]: 34 µM (inactive)
GI50 [32]: 16.5 µM (inactive)
GI50 [33]: 13.4 µM
GI50 [34]: > 33.7 µM (inactive)
GI50 [35]: 13.4 µM (inactive)
GI50 [36]: 20.1 µM (inactive)
GI50 [37]: 1.18 µM (inactive)
GI50 [38]: 20 µM (inactive)
GI50 [39]: 3.66 µM (inactive)
GI50 [40]: 6.46 µM (inactive)
GI50 [41]: 8.81 µM (inactive)
GI50 [42]: 11.4 µM (inactive)
GI50 [43]: 7.89 µM (inactive)
GI50 [44]: 6.9 µM (inactive)
GI50 [45]: 10.7 µM (inactive)
GI50 [46]: 14.4 µM (inactive)
GI50 [47]: 3.78 µM (inactive)
GI50 [48]: 7.48 µM (inactive)
GI50 [49]: 10 µM (inactive)
GI50 [50]: 19.1 µM (inactive)
GI50 [51]: 22.2 µM (inactive)
GI50 [52]: 7.94 µM (inactive)
GI50 [53]: 21.6 µM (inactive)
GI50 [54]: 4.95 µM (inactive)
GI50 [55]: 27.4 µM (inactive)
GI50 [56]: 8.41 µM (inactive)
GI50 [57]: 3.67 µM (inactive)
GI50 [58]: > 47.4 µM (inactive)
GI50 [59]: 25 µM (inactive)
